What all share (test): DTP human tumour cell line panel, 48 h
In assay [1] the test system is DLD-1.
The test system of assay [2] is DMS-273.
Assay [3] concerns LXFL 529.
The test system of assay [4] is DMS-114.
For assay [5], the system named is KM-20L2.
For assay [6], the system named is XF498.
Assay [7] concerns RXF 631.
For assay [8], the system named is HOP-18.
In assay [9] the test system is SNB-78.

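Cultured in 96-well plates, cells were exposed to test compound for 48 hours across five concentrations. Here, GI50 denotes the concentration required for 50% inhibition of growth.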 Calls of active or inactive are those of the source. Cut-off read from the data, not from the text of the source: active = GI50 up to about 1.1 µM and inactive = higher.

`CNC(=O)N(C)/N=N/CCCl`: the GI50 in assay [1], in assay [2], in assay [3], in [4] and in [5] was > 100 µM (inactive) throughout.

In the case of `CS(=O)(=O)OCCN1CCN(C(=O)c2ccc(Cl)c3c(Nc4ccc(S(=O)(=O)N=C(N)N)cc4)c4ccccc4nc23)CC1`, the GI50 in [1], in assay [6], in assay [2], in assay [7], in assay [4] and in assay [5] was > 100 µM (inactive) in each case.

For the compound `CON(C)C(=O)CCCO`, the GI50 in assay [1], in assay [8], in assay [6], in [3], in [7] and in [4] was > 100 µM (inactive) in each case. In addition, the GI50 in [5] was > 100 µM (inactive).

As for `CCN(CC)c1c(C(=O)/C=C/c2ccc(F)cc2)c(-c2ccccc2)nn(C)c1=O`, the GI50 in assay [1] is 3.63 µM (inactive); in [8] it was 21.2 µM (inactive); in assay [9] it was 14.4 µM (inactive); in assay [2], 6.62 µM (inactive); in assay [3], 4.6 µM (inactive); in assay [4], 5.32 µM (inactive). The GI50 in assay [5] is 11.8 µM (inactive).

Consider `Cn1c2c(c3ccccc31)CCN(CCN1CCN(c3cccc(Cl)c3)CC1)C2=O`, for which the GI50 in [1] was 20.7 µM (inactive); in assay [8], > 100 µM (inactive); in assay [6], 3.38 µM (inactive); in assay [2], 49.5 µM (inactive); in assay [3] it was 49 µM (inactive); in assay [4], 37.4 µM (inactive). Moreover, the GI50 in assay [5] is 32.4 µM (inactive).

As to `C/C1=C\[C@H](C)C[C@H](C)OC(=O)C[C@H](c2ccc(O)cc2)NC(=O)[C@@H](Cc2c(Br)[nH]c3ccccc23)N(C)C(=O)[C@H](C)NC(=O)[C@@H](C)C1` [JASPAMIDE], the GI50 in assay [1] is 0.843 µM (active); in assay [9] it was 0.374 µM (active); in [6], 0.226 µM (active); in [2] it was 0.308 µM (active); in assay [3], 0.293 µM (active); in [7], 0.298 µM (active). Further, the concentration for 50% growth inhibition (GI50) in assay [4] is 0.516 µM (active); in assay [5], 0.34 µM (active).

Regarding `COC(OC)c1cccnc1C`, the GI50 in assay [1], in assay [8], in assay [9], in assay [6], in assay [2] and in assay [3] was > 100 µM (inactive) in each case. Further, the GI50 in assay [7], in [4] and in assay [5] was > 100 µM (inactive) throughout.

Regarding `Cc1c(O)c(=O)ccn1C1OC(CO)C(O)C1O` (stereo not drawn), the GI50 in [1] is 91.8 µM (inactive); in [9], > 100 µM (inactive); in assay [6] it was 46.2 µM (inactive); in assay [2], 82 µM (inactive); in assay [3], > 100 µM (inactive); in [5] it was 45 µM (inactive).

On to `C=Cc1ccc(C)[n+](C[Si](C)(C)O[Si](C)(C)C)c1`, for which the GI50 in [1], in [9], in assay [2], in assay [3], in assay [7] and in [4] was > 100 µM (inactive) throughout. Moreover, the GI50 in assay [5] was > 100 µM (inactive).

With `COC(=O)c1nc(N)nc(O)c1CCCCCc1c(O)nc(N)nc1C(=O)OC`, the GI50 in assay [1], in [8], in assay [9], in assay [6], in assay [2] and in [3] was > 50 µM (inactive) in each case. Moreover, the GI50 in assay [7], in assay [4] and in assay [5] was > 50 µM (inactive) in each case.

`O=[N+]([O-])c1cccc(C(O)/C(=N/O)c2nc3ccc(Cl)cc3nc2O)c1` (stereo not drawn): the GI50 in assay [1], in assay [8], in [6], in [3], in [7] and in assay [4] was > 100 µM (inactive) throughout. In addition, in assay [5], the GI50 is > 100 µM (inactive).

`Cc1cc2c(ccc3c(C)cc(=O)oc32)o1`: the GI50 in [1] was > 100 µM (inactive); in assay [8] it was > 55.6 µM (inactive); in assay [9], > 58.5 µM (inactive); in [6], 40.6 µM (inactive); in assay [2], > 100 µM (inactive); in assay [3], > 100 µM (inactive). Moreover, the GI50 in [7], in assay [4] and in assay [5] was > 100 µM (inactive) throughout.

On to `COC(=O)/C(=N\O)C(C(=O)C=C(C)C)C(=O)C(=O)Nc1ccccc1C` (stereo not drawn), for which the GI50 in assay [1], in assay [8], in assay [9], in [6], in assay [2] and in [3] was > 100 µM (inactive) in each case. The GI50 in assay [4] and in assay [5] was > 100 µM (inactive) in each case.

`C/C(CC(=O)Nc1cc(Cl)c(Cl)cc1Cl)=N\NS(=O)(=O)c1ccc(C)cc1`: the GI50 is 33.4 µM (inactive) in [1]; 29 µM (inactive) in [9]; 28.7 µM (inactive) in assay [6]; 36.2 µM (inactive) in assay [3]; 44 µM (inactive) in assay [7]; 28.1 µM (inactive) in [4]. For the same compound, the GI50 in assay [5] is 41.8 µM (inactive).

For the compound `Clc1ccc(Nc2nc3ccccc3nc2-c2cccs2)cc1Cl`, the GI50 in assay [1] is 36.7 µM (inactive); in assay [8], 97.5 µM (inactive); in assay [9], 58.2 µM (inactive); in assay [6], 62.1 µM (inactive); in [2] it was 34 µM (inactive); in [3], 38.9 µM (inactive). Also, the GI50 was 27.8 µM (inactive) in assay [7] and 34.6 µM (inactive) in [5].

Take `COc1cc(C(CC(OC)OC)=C(C#N)C#N)cc(OC)c1OC`: the GI50 in assay [1] was 3.58 µM (inactive); in assay [9] it was 60.4 µM (inactive); in [2], 10.4 µM (inactive); in assay [3], 11.4 µM (inactive); in assay [4], 20.7 µM (inactive); in assay [5] it was 11.4 µM (inactive).

Consider `CCn1c2ccccc2c2ccc3c(c21)C(=O)C=CC3=O`, for which the GI50 was 3.85 µM (inactive) in assay [1]; 11 µM (inactive) in [8]; 22 µM (inactive) in [9]; 3.84 µM (inactive) in [6]; 17.2 µM (inactive) in [2]; 1.93 µM (inactive) in assay [3]. Also, in [4], the GI50 was 6.65 µM (inactive).

Regarding `CCN(CC)C(=O)Cc1c(C(=O)N(CC)CC)c(=O)nc2sccn12`, the GI50 in assay [1], in assay [8], in [6], in assay [2], in assay [3] and in assay [4] was > 100 µM (inactive) each time. Moreover, in assay [5], the GI50 was > 100 µM (inactive).

Consider `CCN1C(C)=NC2C(=O)c3ccccc3C(=O)C21` (stereo not drawn), for which the GI50 in assay [6] is 42.5 µM (inactive); in assay [2] it was 48.6 µM (inactive); in assay [3], 94.4 µM (inactive); in assay [7], > 100 µM (inactive); in [4] it was 32.2 µM (inactive); in assay [5], 27.2 µM (inactive).

Take `NC1=NN(c2ccccc2)C(=O)C1C(=O)C(=O)Nc1ccc(Cl)c(Cl)c1` (stereo not drawn): the GI50 in assay [1], in [8], in assay [9], in assay [2], in [7] and in assay [4] was > 100 µM (inactive) in each case. The GI50 in assay [5] was > 100 µM (inactive).

For `CC1(c2ccccc2)CC(c2cccc([N+](=O)[O-])c2)=NO1` (stereo not drawn), the GI50 in assay [1] was > 100 µM (inactive); in [8] it was > 100 µM (inactive); in assay [9] it was > 100 µM (inactive); in assay [2] it was > 100 µM (inactive); in [3], 94.2 µM (inactive); in assay [7] it was > 100 µM (inactive). Moreover, the GI50 in assay [4] was 44.2 µM (inactive).

As for `COc1ccc2ccnc(Cc3ccc(OCc4ccccc4)c(OC)c3)c2c1`, the GI50 in assay [1] was 25.5 µM (inactive); in assay [8] it was 16.6 µM (inactive); in [9], 26.2 µM (inactive); in assay [6], 10.4 µM (inactive); in [3], 25.9 µM (inactive); in assay [5], 34.5 µM (inactive).

With `O=C(Nc1ccccc1-c1nc2ccccc2[nH]c1=O)c1ccccc1`, the GI50 in assay [1] is 29.2 µM (inactive); in [9], 24 µM (inactive); in [6], 24.6 µM (inactive); in assay [2], 22.9 µM (inactive); in assay [3], 24.6 µM (inactive); in assay [4], 19.5 µM (inactive). Further, the GI50 in assay [5] is 39.6 µM (inactive).
